According to patent publication US8927533B2, “Thio derivatives bearing lactams as potent HDAC inhibitors and their uses as medicaments” (SIGMA-TAU Industrie Farmaceutiche Riunite S.p.A., priority 2011, dated 2015):
Where two headings read alike, the source gives them in different places.

Tests used:
Type in all cases: biochemical
[1] = molecular target: T1, HDAC8 (Homo sapiens, UniProt Q9BY41); assay: HDAC enzymatic assay, HDAC8
T1 sequence (Q9BY41 1-377): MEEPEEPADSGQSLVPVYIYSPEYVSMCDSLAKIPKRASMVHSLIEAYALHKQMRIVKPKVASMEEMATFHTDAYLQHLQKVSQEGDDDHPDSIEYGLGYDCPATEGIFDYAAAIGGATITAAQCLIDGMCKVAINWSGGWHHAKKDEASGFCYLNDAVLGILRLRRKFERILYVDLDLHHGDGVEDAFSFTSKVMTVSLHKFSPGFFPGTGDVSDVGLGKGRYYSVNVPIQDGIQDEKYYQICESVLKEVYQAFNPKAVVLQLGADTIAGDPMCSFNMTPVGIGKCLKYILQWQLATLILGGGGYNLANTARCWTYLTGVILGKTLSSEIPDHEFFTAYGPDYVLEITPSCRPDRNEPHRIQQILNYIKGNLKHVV
Description: (§1) Each compound was dissolved in DMSO, and progressively diluted solutions were used for testing. […] Upon its deacetylation, the fluorophore was released given rise to fluorescence emission which was detected by a fluorimeter, and the IC50 values of the compounds were determined by analyzing dose-response inhibition curves.

[2] = molecular target: HDAC1 (Homo sapiens, UniProt Q13547); assay: HDAC enzymatic assay, HDAC1
Description: as §1

[3] = molecular target: T2, HDAC7 (Homo sapiens, UniProt Q8WUI4); assay: HDAC enzymatic assay, HDAC7
T2 sequence (Q8WUI4 1-952): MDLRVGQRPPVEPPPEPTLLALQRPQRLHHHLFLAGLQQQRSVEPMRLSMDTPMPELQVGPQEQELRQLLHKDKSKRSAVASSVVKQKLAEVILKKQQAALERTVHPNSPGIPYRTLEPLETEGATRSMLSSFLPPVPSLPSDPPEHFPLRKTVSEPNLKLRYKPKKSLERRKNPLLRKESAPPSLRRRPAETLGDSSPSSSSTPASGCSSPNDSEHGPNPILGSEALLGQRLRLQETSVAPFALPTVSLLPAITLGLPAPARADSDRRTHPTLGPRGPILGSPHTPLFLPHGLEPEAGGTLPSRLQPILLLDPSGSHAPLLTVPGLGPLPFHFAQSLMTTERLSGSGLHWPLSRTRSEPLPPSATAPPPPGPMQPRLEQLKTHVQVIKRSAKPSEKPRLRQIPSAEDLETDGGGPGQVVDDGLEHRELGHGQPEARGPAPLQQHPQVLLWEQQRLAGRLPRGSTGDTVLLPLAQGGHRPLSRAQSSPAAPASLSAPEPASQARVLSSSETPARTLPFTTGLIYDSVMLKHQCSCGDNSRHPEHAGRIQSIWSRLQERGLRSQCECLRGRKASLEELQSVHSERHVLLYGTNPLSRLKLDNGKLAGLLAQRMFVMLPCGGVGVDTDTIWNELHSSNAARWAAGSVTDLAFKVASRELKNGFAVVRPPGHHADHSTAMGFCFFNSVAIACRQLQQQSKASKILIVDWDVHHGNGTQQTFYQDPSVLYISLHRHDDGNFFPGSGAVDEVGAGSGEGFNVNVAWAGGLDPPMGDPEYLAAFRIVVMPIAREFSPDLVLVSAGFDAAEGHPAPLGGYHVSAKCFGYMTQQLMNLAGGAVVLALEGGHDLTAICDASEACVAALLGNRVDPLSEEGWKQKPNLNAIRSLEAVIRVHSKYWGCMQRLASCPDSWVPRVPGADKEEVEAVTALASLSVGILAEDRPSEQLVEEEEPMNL
Description: as §1

[4] = molecular target: HDAC4 (Homo sapiens, UniProt P56524); assay: HDAC enzymatic assay, HDAC4
Description: as §1

[5] = molecular target: HDAC2 (Homo sapiens, UniProt Q92769); assay: HDAC enzymatic assay, HDAC2
Description: as §1

[6] = molecular target: HDAC9 (Homo sapiens, UniProt Q9UKV0); assay: HDAC enzymatic assay, HDAC9
Description: as §1

[7] = fluorogenic tetrapeptide RHKKAc substrate 10 μM, read-out: HDAC isoforms IC50 (nM), 8
[8] = fluorogenic tetrapeptide RHKKAc substrate 10 μM, read-out: HDAC isoforms IC50 (nM), 1
[9] = fluorogenic tetrapeptide RHKKAc substrate 10 μM, read-out: HDAC isoforms IC50 (nM), 7
[10] = fluorogenic tetrapeptide RHKKAc substrate 10 μM, read-out: HDAC isoforms IC50 (nM), 4
[11] = fluorogenic tetrapeptide RHKKAc substrate 10 μM, read-out: HDAC isoforms IC50 (nM), 2
[12] = fluorogenic tetrapeptide RHKKAc substrate 10 μM, read-out: HDAC isoforms IC50 (nM), 9
[13] = Table 2, thio (SH) vs hydroxamate (CONHOH) MBG analogues, read-out: HDAC isoforms, 8 (IC50)
[14] = Table 2, thio (SH) vs hydroxamate (CONHOH) MBG analogues, read-out: HDAC isoforms, 1 (IC50)
[15] = Table 2, thio (SH) vs hydroxamate (CONHOH) MBG analogues, read-out: HDAC isoforms, 7 (IC50)
[16] = Table 2, thio (SH) vs hydroxamate (CONHOH) MBG analogues, read-out: HDAC isoforms, 4 (IC50)
[17] = Table 2, thio (SH) vs hydroxamate (CONHOH) MBG analogues, read-out: HDAC isoforms, 2 (IC50)
[18] = Table 2, thio (SH) vs hydroxamate (CONHOH) MBG analogues, read-out: HDAC isoforms, 9 (IC50)

HDAC4, sequence (P56524 whole entry): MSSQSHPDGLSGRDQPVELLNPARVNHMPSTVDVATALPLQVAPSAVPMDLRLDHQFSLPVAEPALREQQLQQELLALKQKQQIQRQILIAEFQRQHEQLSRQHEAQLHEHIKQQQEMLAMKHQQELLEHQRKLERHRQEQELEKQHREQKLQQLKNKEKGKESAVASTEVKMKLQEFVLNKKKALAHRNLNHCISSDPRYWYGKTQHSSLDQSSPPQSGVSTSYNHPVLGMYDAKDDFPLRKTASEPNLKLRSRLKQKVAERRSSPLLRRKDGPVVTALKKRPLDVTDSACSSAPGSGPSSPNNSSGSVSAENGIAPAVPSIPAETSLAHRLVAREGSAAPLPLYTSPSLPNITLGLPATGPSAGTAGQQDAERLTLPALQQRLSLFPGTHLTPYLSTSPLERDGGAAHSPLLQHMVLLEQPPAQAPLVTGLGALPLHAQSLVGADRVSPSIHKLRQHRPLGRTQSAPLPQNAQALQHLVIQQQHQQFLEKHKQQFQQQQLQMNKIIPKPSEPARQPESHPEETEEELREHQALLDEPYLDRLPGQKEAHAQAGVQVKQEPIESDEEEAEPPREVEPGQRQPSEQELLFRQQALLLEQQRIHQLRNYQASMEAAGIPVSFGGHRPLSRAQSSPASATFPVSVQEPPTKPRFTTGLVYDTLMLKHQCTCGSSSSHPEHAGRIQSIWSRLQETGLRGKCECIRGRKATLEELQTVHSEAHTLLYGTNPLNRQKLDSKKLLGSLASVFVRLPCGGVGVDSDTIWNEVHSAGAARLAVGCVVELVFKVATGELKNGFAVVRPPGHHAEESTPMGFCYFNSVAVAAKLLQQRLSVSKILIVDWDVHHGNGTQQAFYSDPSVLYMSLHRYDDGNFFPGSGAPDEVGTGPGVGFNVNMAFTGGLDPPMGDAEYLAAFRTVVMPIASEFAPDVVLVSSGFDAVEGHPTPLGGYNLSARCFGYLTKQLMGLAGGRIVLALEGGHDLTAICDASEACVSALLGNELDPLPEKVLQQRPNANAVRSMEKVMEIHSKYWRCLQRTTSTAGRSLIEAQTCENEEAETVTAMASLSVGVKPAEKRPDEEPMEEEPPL
HDAC9, sequence (Q9UKV0 whole entry): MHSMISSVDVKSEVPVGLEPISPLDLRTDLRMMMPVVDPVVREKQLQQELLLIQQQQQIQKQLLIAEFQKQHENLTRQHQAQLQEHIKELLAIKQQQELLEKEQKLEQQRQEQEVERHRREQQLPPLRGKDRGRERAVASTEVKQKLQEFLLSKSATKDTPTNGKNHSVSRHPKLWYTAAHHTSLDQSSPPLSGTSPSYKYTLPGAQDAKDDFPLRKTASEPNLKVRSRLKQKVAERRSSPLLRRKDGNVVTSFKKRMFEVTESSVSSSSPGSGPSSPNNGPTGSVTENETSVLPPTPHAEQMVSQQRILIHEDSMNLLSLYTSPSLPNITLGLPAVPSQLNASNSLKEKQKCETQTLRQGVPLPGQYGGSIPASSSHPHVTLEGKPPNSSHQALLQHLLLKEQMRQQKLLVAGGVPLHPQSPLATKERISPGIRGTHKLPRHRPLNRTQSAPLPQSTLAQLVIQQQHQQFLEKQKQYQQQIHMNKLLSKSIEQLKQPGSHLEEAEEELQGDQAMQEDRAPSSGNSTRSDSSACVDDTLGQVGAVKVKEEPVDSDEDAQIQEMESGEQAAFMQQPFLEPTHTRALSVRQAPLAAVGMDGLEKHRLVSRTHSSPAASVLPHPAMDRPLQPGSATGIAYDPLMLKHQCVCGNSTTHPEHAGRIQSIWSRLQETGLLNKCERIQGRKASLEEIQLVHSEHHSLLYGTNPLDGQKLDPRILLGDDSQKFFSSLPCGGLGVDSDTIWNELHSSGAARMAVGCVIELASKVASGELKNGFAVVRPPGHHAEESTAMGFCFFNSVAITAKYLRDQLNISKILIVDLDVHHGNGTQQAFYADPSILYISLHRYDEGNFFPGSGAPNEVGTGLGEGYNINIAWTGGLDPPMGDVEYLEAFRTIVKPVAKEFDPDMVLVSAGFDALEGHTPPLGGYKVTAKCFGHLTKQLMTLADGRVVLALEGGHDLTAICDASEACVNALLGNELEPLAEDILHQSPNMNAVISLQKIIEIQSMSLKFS
HDAC2, sequence (Q92769 whole entry): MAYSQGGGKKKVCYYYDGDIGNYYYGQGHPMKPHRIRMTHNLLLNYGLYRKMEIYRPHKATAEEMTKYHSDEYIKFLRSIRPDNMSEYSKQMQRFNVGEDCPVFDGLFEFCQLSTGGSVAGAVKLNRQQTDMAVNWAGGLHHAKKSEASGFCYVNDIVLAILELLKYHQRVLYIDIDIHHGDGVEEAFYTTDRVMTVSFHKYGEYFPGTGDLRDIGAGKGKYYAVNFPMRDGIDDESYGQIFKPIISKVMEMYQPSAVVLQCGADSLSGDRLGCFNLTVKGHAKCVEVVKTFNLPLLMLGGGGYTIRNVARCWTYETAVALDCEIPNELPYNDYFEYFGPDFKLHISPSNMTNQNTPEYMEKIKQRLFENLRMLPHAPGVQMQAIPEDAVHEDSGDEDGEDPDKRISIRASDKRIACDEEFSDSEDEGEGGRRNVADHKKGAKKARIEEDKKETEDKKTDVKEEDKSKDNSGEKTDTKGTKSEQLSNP
HDAC1, sequence (Q13547 whole entry): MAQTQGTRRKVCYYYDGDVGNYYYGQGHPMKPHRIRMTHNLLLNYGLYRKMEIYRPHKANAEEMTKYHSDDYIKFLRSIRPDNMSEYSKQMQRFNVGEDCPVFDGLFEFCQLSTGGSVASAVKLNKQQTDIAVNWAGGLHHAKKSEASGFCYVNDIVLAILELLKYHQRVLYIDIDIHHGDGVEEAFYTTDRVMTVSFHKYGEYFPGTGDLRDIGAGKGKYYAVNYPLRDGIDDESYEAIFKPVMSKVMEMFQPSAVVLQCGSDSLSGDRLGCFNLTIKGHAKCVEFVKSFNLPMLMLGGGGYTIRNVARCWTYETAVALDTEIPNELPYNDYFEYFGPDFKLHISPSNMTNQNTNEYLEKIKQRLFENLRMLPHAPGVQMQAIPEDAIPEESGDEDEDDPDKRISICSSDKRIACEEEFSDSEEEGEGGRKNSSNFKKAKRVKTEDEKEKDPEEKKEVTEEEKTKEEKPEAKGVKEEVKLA

SMILES | IC50 [1, 7] [nM] | IC50 [2, 8] [nM] | IC50 [3, 9] [nM] | IC50 [4, 10] [nM] | IC50 [5, 11] [nM] | IC50 [6, 12] [nM] | IC50 [1, 13] [nM] | IC50 [2, 14] [nM] | IC50 [3, 15] [nM] | IC50 [4, 16] [nM] | IC50 [5, 17] [nM] | IC50 [6, 18] [nM]
O=C1CCC[C@@H](C(=O)N[C@@H](CCCCCS)C(=O)NCc2ccc(C(F)(F)F)cc2)N1 [Example 26, (S)-6-Oxo-piperidine-2-carboxylic acid [(S)-6-mercapto-1-(4-trifluoromethyl-benzylcarbamoyl)-hexyl]-amide] | < 50 | 100 to 500 | 100 to 500 | < 50 | 100 to 500 | 100 to 500 |  |  |  |  |  | 
O=C1CCC[C@@H](C(=O)N[C@@H](CCCCCS)C(=O)Nc2ccccc2)N1 [Example 23, (S)-6-Oxo-piperidine-2-carboxylic acid ((S)-6-mercapto-1-phenylcarbamoyl-hexyl)amide] | 100 to 500 | < 50 | < 50 | < 50 | 50 to 100 | < 50 |  |  |  |  |  | 
O=C1NCCC[C@@H]1C(=O)N[C@@H](CCCCCS)C(=O)Nc1ccccc1 [Example 36, (S)-2-Oxo-piperidine-3-carboxylic acid ((S)-6-mercapto-1-phenylcarbamoyl-hexyl)amide] | 100 to 500 | < 50 | 50 to 100 | < 50 | < 50 | < 50 |  |  |  |  |  | 
O=C1CCC[C@@H](C(=O)N[C@@H](CCCCCS)C(=O)N2CCc3ccccc3C2)N1 [Example 32, (S)-6-Oxo-piperidine-2-carboxylic acid [(S)-1-(3,4-dihydro-1H-isoquinoline-2-carbonyl)-6-mercapto-hexyl]-amide] | 100 to 500 | 100 to 500 | 100 to 500 | < 50 | < 50 | 100 to 500 |  |  |  |  |  | 
Cc1cccc(NC(=O)[C@H](CCCCCS)NC(=O)[C@@H]2CCCC(=O)N2)c1 [Example 38, (S)-6-Oxo-piperidine-2-carboxylic acid ((S)-6-mercapto-1-m-tolylcarbamoyl-hexyl)amide] | 100 to 500 | < 50 | < 50 | 100 to 500 | < 50 | < 50 |  |  |  |  |  | 
O=C1NCCC[C@H]1C(=O)N[C@@H](CCCCCS)C(=O)Nc1ccccc1 [Example 35, (R)-2-Oxo-piperidine-3-carboxylic acid ((S)-6-mercapto-1-phenylcarbamoyl-hexyl)amide] | 50 to 100 | < 50 | < 50 | < 50 | < 50 | < 50 |  |  |  |  |  | 
O=C1NC[C@@H](c2ccccc2)[C@@H]1C(=O)N[C@@H](CCCCCS)C(=O)Nc1ccccc1 [Example 31, (3S,4R)-2-Oxo-4-phenyl-pyrrolidine-3-carboxylic acid ((S)-6-mercapto-1-phenylcarbamoyl-hexyl)-amide] | < 50 | < 50 | < 50 | < 50 | < 50 | < 50 | < 50 | < 50 | < 50 | < 50 | < 50 | < 50
CC(=O)SCCCCC[C@H](NC(=O)[C@H]1CCC(=O)N1)C(=O)Nc1ccccc1 [Example 21, Thioacetic acid S—{(S)-6-[((R)-5-oxo-pyrrolidine-2-carbonyl)-amino]-6-phenylcarbamoyl-hexyl}ester] |  |  |  |  |  |  | 100 to 500 | < 50 | < 50 | < 50 | 50 to 100 | < 50
O=C1CCC[C@@H](C(=O)N[C@@H](CCCCCS)C(=O)NC2CCCC2)N1 [Example 24, (S)-6-Oxo-piperidine-2-carboxylic acid ((S)-1-cyclopentylcarbamoyl-6-mercapto-hexyl)amide] | 100 to 500 | 100 to 500 | < 50 | < 50 | 100 to 500 | < 50 |  |  |  |  |  | 
O=C1NC[C@H](c2ccccc2)[C@@H]1C(=O)N[C@@H](CCCCCS)C(=O)Nc1ccccc1 [Example 28, (3S,4S)-2-Oxo-4-phenyl-pyrrolidine-3-carboxylic acid ((S)-6-mercapto-1-phenylcarbamoyl-hexyl)-amide] | 100 to 500 | < 50 | 100 to 500 | < 50 | 100 to 500 | < 50 |  |  |  |  |  | 
O=C1NC[C@@H](c2ccccc2)[C@H]1C(=O)N[C@@H](CCCCCS)C(=O)Nc1ccccc1 [Example 29, (3R,4R)-2-Oxo-4-phenyl-pyrrolidine-3-carboxylic acid ((S)-6-mercapto-1-phenylcarbamoyl-hexyl)-amide] | 100 to 500 | 50 to 100 | 100 to 500 | < 50 | 100 to 500 | 50 to 100 |  |  |  |  |  | 
O=C1CCC[C@H](C(=O)N[C@@H](CCCCCS)C(=O)Nc2ccccc2)N1 [Example 37, (R)-6-Oxo-piperidine-2-carboxylic acid ((S)-6-mercapto-1-phenylcarbamoyl-hexyl)amide] | 100 to 500 | < 50 | 100 to 500 | < 50 | < 50 | < 50 |  |  |  |  |  | 
O=C1CCC[C@@H](C(=O)N[C@@H](CCCCCS)C(=O)NCc2cccc(OCc3ccccc3)c2)N1 [Example 25, (S)-6-Oxo-piperidine-2-carboxylic acid [(S)-1-(3-benzyloxy-benzylcarbamoyl)-6-mercapto-hexyl]-amide] | < 50 | 100 to 500 | 100 to 500 | 100 to 500 | 100 to 500 | 100 to 500 |  |  |  |  |  | 
O=C1CC[C@H](C(=O)N[C@@H](CCCCCS)C(=O)Nc2ccccc2)N1 [Example 33, (R)-5-Oxo-pyrrolidine-2-carboxylic acid ((S)-6-mercapto-1-phenylcarbamoyl-hexyl)amide] | 100 to 500 | < 50 | < 50 | 50 to 100 | 50 to 100 | < 50 | 100 to 500 | < 50 | < 50 | 50 to 100 | 50 to 100 | < 50
O=C1C[C@@H](C(=O)N[C@@H](CCCCCS)C(=O)Nc2ccccc2)N1 [Example 27, (S)-4-Oxo-azetidine-2-carboxylic acid ((S)-6-mercapto-1-phenylcarbamoyl-hexyl)amide] | 50 to 100 | < 50 | < 50 | 100 to 500 | 50 to 100 | < 50 |  |  |  |  |  | 
Cc1cccc(CCNC(=O)[C@H](CCCCCS)NC(=O)[C@@H]2CCCC(=O)N2)c1 [Example 34, (S)-6-Oxo-piperidine-2-carboxylic acid [(S)-6-mercapto-1-(2-m-tolyl-ethylcarbamoyl)hexyl]-amide] | < 50 | 50 to 100 | 100 to 500 | < 50 | 100 to 500 | 100 to 500 |  |  |  |  |  | 
